Assay: xn = mol fraction of the nth substance listed

NCCO + CCCCCCO
viscosity [mPa·s], 101.3 kPa
Conditions	x1 = 0.1	x1 = 0.2	x1 = 0.3	x1 = 0.4	x1 = 0.5	x1 = 0.6	x1 = 0.7	x1 = 0.8	x1 = 0.9
303.15 K	4.07	4.48	5.04	5.68	6.54	7.62	8.84	10.4	12.3
313.15 K	3.08	3.34	3.72	4.15	4.7	5.41	6.17	7.18	8.31
323.15 K	2.37	2.57	2.84	3.13	3.51	3.98	4.49	5.16	5.88

C1CCCC1 + CCCCCO
101.3 kPa
Conditions	viscosity [mPa·s]
298.15 K, x1 = 0.0498	3.211
298.15 K, x1 = 0.0796	3.013
298.15 K, x1 = 0.1294	2.679
298.15 K, x1 = 0.1855	2.343
298.15 K, x1 = 0.2386	2.037
298.15 K, x1 = 0.2579	1.924
298.15 K, x1 = 0.2645	1.883
298.15 K, x1 = 0.2919	1.755
298.15 K, x1 = 0.3012	1.709
298.15 K, x1 = 0.351	1.481
298.15 K, x1 = 0.3712	1.406
298.15 K, x1 = 0.4221	1.221
298.15 K, x1 = 0.4544	1.118
298.15 K, x1 = 0.5073	0.992
298.15 K, x1 = 0.5388	0.926
298.15 K, x1 = 0.569	0.869
298.15 K, x1 = 0.596	0.827
298.15 K, x1 = 0.6189	0.79
298.15 K, x1 = 0.6343	0.771
298.15 K, x1 = 0.6621	0.739
298.15 K, x1 = 0.6893	0.707
298.15 K, x1 = 0.7282	0.685
298.15 K, x1 = 0.774	0.663
298.15 K, x1 = 0.8207	0.613
298.15 K, x1 = 0.8699	0.566
298.15 K, x1 = 0.9192	0.515
298.15 K, x1 = 0.9698	0.447
308.15 K, x1 = 0.0419	2.415
308.15 K, x1 = 0.1319	2.057
308.15 K, x1 = 0.2149	1.783
308.15 K, x1 = 0.2986	1.542
308.15 K, x1 = 0.3735	1.35
308.15 K, x1 = 0.4	1.287
308.15 K, x1 = 0.4437	1.19
308.15 K, x1 = 0.4804	1.118
308.15 K, x1 = 0.5152	1.049
308.15 K, x1 = 0.6882	0.817
308.15 K, x1 = 0.7025	0.798
308.15 K, x1 = 0.7196	0.781
308.15 K, x1 = 0.7454	0.752
308.15 K, x1 = 0.7726	0.727
308.15 K, x1 = 0.809	0.681
308.15 K, x1 = 0.8542	0.617
308.15 K, x1 = 0.9094	0.517
308.15 K, x1 = 0.955	0.418
318.15 K, x1 = 0.1213	1.768
318.15 K, x1 = 0.1891	1.573
318.15 K, x1 = 0.2652	1.36
318.15 K, x1 = 0.34	1.171
318.15 K, x1 = 0.4015	1.035
318.15 K, x1 = 0.4409	0.953
318.15 K, x1 = 0.4863	0.864
318.15 K, x1 = 0.5184	0.807
318.15 K, x1 = 0.5402	0.775
318.15 K, x1 = 0.5588	0.74
318.15 K, x1 = 0.6063	0.67
318.15 K, x1 = 0.665	0.593
318.15 K, x1 = 0.7127	0.537
318.15 K, x1 = 0.7882	0.467
318.15 K, x1 = 0.8688	0.405
318.15 K, x1 = 0.9451	0.359

C=CCc1ccc2c(c1)OCO2 + CCCCCOC(C)=O
298.15 K, 101 kPa
Conditions	viscosity [mPa·s]
x1 = 0.053	0.833
x1 = 0.232	1.01

c1ccc(-c2ccccc2)cc1 + CCCCCOC(C)=O
298.15 K, 101 kPa
Conditions	viscosity [mPa·s]
x1 = 0.0249	0.803
x1 = 0.0367	0.8121

CCC(=O)CC + CCCCN
303.15 K, 101.33 kPa
Conditions	viscosity [mPa·s]
x2 = 0.1145	0.519
x2 = 0.2006	0.59
x2 = 0.3211	0.678
x2 = 0.417	0.735
x2 = 0.5421	0.784
x2 = 0.7264	0.752
x2 = 0.8234	0.681
x2 = 0.8922	0.62

CCC(=O)CC + CCCCN(CCCC)CCCC
viscosity [mPa·s], 101 kPa
Conditions	298.15 K	303.15 K	308.15 K
x2 = 0.05	0.468	0.442	0.419
x2 = 0.1004	0.498	0.47	0.444
x2 = 0.1502	0.533	0.502	0.473
x2 = 0.2006	0.566	0.531	0.502
x2 = 0.25	0.6	0.563	0.529
x2 = 0.2996	0.636	0.595	0.559
x2 = 0.3995	0.71	0.662	0.621
x2 = 0.4998	0.79	0.734	0.684
x2 = 0.6004	0.874	0.809	0.752
x2 = 0.7005	0.965	0.889	0.824
x2 = 0.7998	1.065	0.978	0.901
x2 = 0.8462	1.109	1.016	0.934
x2 = 0.8953	1.16	1.06	0.976
x2 = 0.9489	1.212	1.106	1.017

C1CCCC1 + CCCCO
101 kPa
Conditions	viscosity [mPa·s]
298.15 K, x1 = 0.0281	2.401
298.15 K, x1 = 0.0729	2.23
298.15 K, x1 = 0.1366	1.972
298.15 K, x1 = 0.2131	1.703
298.15 K, x1 = 0.268	1.533
298.15 K, x1 = 0.2928	1.448
298.15 K, x1 = 0.3216	1.358
298.15 K, x1 = 0.3809	1.205
298.15 K, x1 = 0.4426	1.035
298.15 K, x1 = 0.5285	0.8835
298.15 K, x1 = 0.5981	0.7551
298.15 K, x1 = 0.6858	0.6361
298.15 K, x1 = 0.7617	0.5622
298.15 K, x1 = 0.7948	0.5316
298.15 K, x1 = 0.8094	0.5193
298.15 K, x1 = 0.8797	0.4629
308.15 K, x1 = 0.004	1.958
308.15 K, x1 = 0.1227	1.614
308.15 K, x1 = 0.1427	1.583
308.15 K, x1 = 0.1774	1.556
308.15 K, x1 = 0.2185	1.381
308.15 K, x1 = 0.2585	1.358
308.15 K, x1 = 0.3367	1.164
308.15 K, x1 = 0.421	1.009
308.15 K, x1 = 0.494	0.8822
308.15 K, x1 = 0.5979	0.6995
308.15 K, x1 = 0.7214	0.5435
308.15 K, x1 = 0.8382	0.4404
308.15 K, x1 = 0.9315	0.3813
308.15 K, x1 = 0.9658	0.3641
308.15 K, x1 = 0.9781	0.3599
